Results: US10508113B2, “Inhibitors of tyrosine kinase 2 mediated signaling” (AbbVie Inc., priority 2018, dated 2019)

Target: T1, Tyk2/Jak2 (Homo sapiens, UniProt P29597)
T1 construct: Cell Type: Frozen primary phytohemagglutinin (PHA) T-Blasts; endogenous in cells; host or cells: primary PHA T-blasts
Experiment: Tyk2 (Tyk2/Jak2 PSTAT4 T-Blast) alpha screen assay: inhibition of IL-12 induced phosphorylation of STAT4 in T-blast cells
Format: cell-based
Details: IL-12 induced pSTAT4, T-blast cells
Protocol: 1. TYK2 (TYK2/JAK2 PSTAT4 T-BLAST) ALPHA SCREEN ASSAY
IL-12 is known to transduce its signal through IL-12 receptor via Jak2 and/or Tyk2. For that reason, the activity against Tyk2/Jak2 was measured by determining the inhibition of IL-12 induced phosphorylation of STAT4 in T-blast cells. […] See, e.g., Sohn et al., J. Immunology (2013) 2205-2216.
Cell Type: Frozen primary phytohemagglutinin (PHA) T-Blasts; Culture Medium: Roswell Park Memorial Institute (RPMI) 1640 Medium, 10% heat-inactivated fetal bovine serum (FBS), 1% penicillin/streptomycin (Pen-Strep), 10 mM hydroxyethyl piperazineethanesulfonic acid (HEPES), 10 ng/mL recombinant human interleukin-12 (rhIL-12); Assay Medium: Hank's Balanced Salt Solution (HBSS), no phenol red.
i. Automated 11-point 1:3 dilution curve: 2.5 mM top concentration dispensed in column 1 of a Corning 96-well polypropylene plate. Dimethyl sulfoxide (DMSO) was added to column 12 for high and low controls. Compounds were serially diluted 1:3 by adding 20 uL stock to 40 μL DMSO across the plate via Hamilton Microlab Star instrument.
ii. Media dilution of compounds: Serially diluted compounds were diluted 1:50 in assay medium by adding 4 μL compound to 196 μL assay medium in a Corning 96-well polypropylene plate (now 2% DMSO).
iii. […]
Primary T-Blasts from overnight culture were centrifuged, washed once in assay medium, and pelleted. T-Blasts were counted and resuspended at 12,500,000 cells/mL. […]
Phosphorylated Signal Transducer and Activator of Transcription 4 (pSTAT4) was quantified using the PerkinElmer SureFire Ultra pSTAT4 (Tyrosine 693) Assay. […]
Make master mix of Protein A donor beads using the following volumes per well: 5.88 μL Dilution Buffer and 0.12 μL […]. […] Read plate on Perkin Elmer Envision. […]
Certain compounds listed in Table C were tested for Tyk2 activity following the aforementioned Tyk2 (Tyk2/Jak2 PSTAT4 T-Blast) alpha screen assay and Jak2 (PTATS UT7) alpha screen assay. […] Selectivity for Tyk2 over Jak1, and Tyk2 over Jak2, are calculated from the tabulated activity data.

T1 sequence (P29597 whole entry, other chains not shown): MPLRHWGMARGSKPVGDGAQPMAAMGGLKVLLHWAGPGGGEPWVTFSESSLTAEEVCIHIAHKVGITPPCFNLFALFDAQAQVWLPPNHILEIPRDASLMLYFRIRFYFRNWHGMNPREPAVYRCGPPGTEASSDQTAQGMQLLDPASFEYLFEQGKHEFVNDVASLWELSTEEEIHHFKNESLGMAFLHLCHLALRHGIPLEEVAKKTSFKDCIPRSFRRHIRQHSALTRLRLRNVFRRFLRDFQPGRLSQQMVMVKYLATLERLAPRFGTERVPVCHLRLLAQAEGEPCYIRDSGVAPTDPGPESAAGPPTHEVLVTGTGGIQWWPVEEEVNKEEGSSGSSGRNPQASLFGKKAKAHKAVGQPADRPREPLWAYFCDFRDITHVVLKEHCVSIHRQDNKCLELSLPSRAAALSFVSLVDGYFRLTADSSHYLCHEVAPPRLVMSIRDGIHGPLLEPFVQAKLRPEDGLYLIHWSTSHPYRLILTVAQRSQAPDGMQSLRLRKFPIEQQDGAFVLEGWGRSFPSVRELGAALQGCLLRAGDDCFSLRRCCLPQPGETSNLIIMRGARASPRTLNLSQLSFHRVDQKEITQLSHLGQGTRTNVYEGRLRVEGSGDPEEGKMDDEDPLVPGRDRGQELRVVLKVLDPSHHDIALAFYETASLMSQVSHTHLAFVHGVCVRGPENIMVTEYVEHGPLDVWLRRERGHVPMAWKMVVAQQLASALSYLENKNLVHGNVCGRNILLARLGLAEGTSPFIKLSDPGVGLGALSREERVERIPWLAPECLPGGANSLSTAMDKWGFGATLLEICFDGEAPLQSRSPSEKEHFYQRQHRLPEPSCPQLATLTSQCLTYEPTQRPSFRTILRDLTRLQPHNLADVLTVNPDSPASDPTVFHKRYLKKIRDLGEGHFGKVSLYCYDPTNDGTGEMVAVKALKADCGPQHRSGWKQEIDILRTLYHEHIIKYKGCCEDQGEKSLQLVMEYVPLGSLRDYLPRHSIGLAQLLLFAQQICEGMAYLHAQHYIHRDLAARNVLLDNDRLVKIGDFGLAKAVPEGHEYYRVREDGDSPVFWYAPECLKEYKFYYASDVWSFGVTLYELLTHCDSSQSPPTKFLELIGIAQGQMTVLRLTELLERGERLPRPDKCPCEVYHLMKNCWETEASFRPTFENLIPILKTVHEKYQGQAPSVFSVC

| EC50 [nM] | Compound |
| --- | --- |
| 147 | COCc1cc(-c2cn(C)c3cnc(NC(C)=O)cc23)nc([C@]2([C@H](C)O)CCOC2)c1 [Example 22.3, N-(3-(6-((R)-3-((S)-1-hydroxyethyl)tetrahydrofuran-3-yl)-4-(methoxymethyl)pyridin-2-yl)-1-methyl-1H-pyrrolo[2,3-c]pyridin-5-yl)acetamide] |
| 112 | COCc1cc(-c2cn(C)c3cnc(NC(C)=O)cc23)nc([C@]2([C@@H](C)O)CCOC2)c1 [Example 22.4, N-(3-(6-((R)-3-((R)-1-hydroxyethyl)tetrahydrofuran-3-yl)-4-(methoxymethyl)pyridin-2-yl)-1-methyl-1H-pyrrolo[2,3-c]pyridin-5-yl)acetamide] |
